Consider 1 compound from US20250025387A1, “COMPOSITION FOR THE TREATMENT OF THE SKIN OF DIABETES PATIENTS” (MIBELLE AG, priority 2021, published 2025).

The test system of experiment [1] is loricrin. Nature of the experiment: Loricrin expression stain of 3D epidermis (immunohistochemistry). The format is cell-based, human. Particulars: 1.1 mM apical, 0.3 mM CaCl2·2H2O basal, 9 days of differentiation. As for the experimental part: (§1) The effect of the Ca^2+ phospholipid complexes on the differentiation of 3D-reconstructed epidermis was investigated. To this end, keratinocyte progenitor cells were cultivated in low-calcium growth medium (TAK-GM, 0.03 mM calcium chloride dihydrate (CaCl2·2H2O)) and were then used to reconstruct a 3D epidermis. For this purpose, the medium was replaced by a 3D differentiation medium (TAK-3D) containing 1.1 mM CaCl2·2H2O and the cells were grown in the medium for a further day. The cultures were then contacted with the air in order to induce differentiation and formation of the skin barrier, and grown for a further 9 days with changing of the medium every second day in the following way: • Condition 1: 1.1 mM CaCl2·2H2O from the basal side (TAK-3D). This is the standard condition for efficient epidermis formation. • Condition 2: 0.3 mM CaCl2·2H2O from the basal side (low calcium concentration). The calcium concentration was reduced here in order to cause impaired formation of the epidermis and thus produce an impaired skin barrier. This is the minimum necessary calcium concentration that must be present on the basal side in order to ensure formation of the epidermis. • Condition 3: 0.3 mM CaCl2·2H2O from the basal side+1.1 mM CaCl2·2H2O from the apical side. Here, calcium was additionally added to the 3D epidermis apically in the form of calcium chloride dihydrate. […]

Experiment [2] deals with involucrin. The experiment can be described thus: Involucrin expression in skin explants after topical treatment in Franz diffusion cells. Format: cell-based. Particulars: gel containing 0.013% CaCl2·2H2O, topical 24 hours, 20 mg. As for the experimental part: The effect of a topical treatment with Ca^2+ phospholipid complex on the expression of the epidermis differentiation marker involucrin was investigated in skin explants. […] Thereafter, the skin explants were washed with 3 ml of water and frozen at −80° C. The tissues were fixed in formaldehyde and embedded in paraffin. Tissue sections of 5 μm were prepared and mounted on glass slides before deparaffination. The slides were stained with hematoxylin-eosin stain to analyze tissue structure. The protein expression of involucrin was determined by immunohistochemical staining and quantified by image analysis.

The subject of experiment [3] is 3D-reconstructed epidermis. Nature of the experiment: Rebuilding of the epidermis structure in an in vitro skin model, control CaCl2 (hematoxylin-eosin stain). Format: cell-based, human. The following applies: 1.1 mM apical, 0.3 mM CaCl2·2H2O basal, 9 days of differentiation; dihydrate. As for the experimental part:
as §1

“Also recorded” adds a separate entry of the source.

`O.O.[Ca+2].[Cl-].[Cl-]` [CaCl2·2H2O, calcium chloride dihydrate]: in experiment [1], the “expression of the epidermal differentiation marker loricrin” value was “reduced loricrin production”. In addition, the “reduction of involucrin expression compared to the placebo-treated skin explant” value in experiment [2] worked out at 91.1%. Besides, in experiment [3], the “formation of 3D epidermis (hematoxylin-eosin stain)” value is reported as “impairment of epidermis formation; also recorded: additionally worsened the formation of a 3D epidermis”.
